Values of other authors as cited in patent publication US20190365933A1, “SOLVENT-FREE GADOLINIUM CONTRAST AGENTS” (Inventure, LLC, priority 2016, published 2019).
Read-outs that look alike come from different tables or passages of the source.

Conditional stability constant at pH 7.4 (log Keff) (complex of gadolinium with the named ligand, log value)	Thermodynamic stability constants pH 14 (log KGdL) (complex of gadolinium with the named ligand, pH 14, ligand entirely deprotonated, log value)	Conditional stability constant at pH 7.4 (log Keff)	Thermodynamic stability constants pH 14 (log KGdL) (pH 14)	SMILES
17.2	24.7	–	–	O=C(O)CN1CCN(CC(=O)O)CCN(CC(=O)O)CCN(CC(=O)O)CC1 [DOTA, 1,4,7,10-tetraazacyclododecane-1,4,7,10-tetraacetic acid]
–	–	12.7	14.54	O=C(O)CNC(=O)CN1CCN(CC(=O)NCC(=O)O)CCN(CC(=O)NCC(=O)O)CCN(CC(=O)NCC(=O)O)CC1 [DOTA-(gly)4]
